Values quoted from earlier work in article PMC3575012 (Scientific Reports, 2013).

Experiments:
[1] = test system: Alzheimer's disease; details: cohort of patients suffering “mild” AD; ref not given
[2] = test system: amyloid precursor protein; details: stated as known, explained by buried free N-terminus of Aβ; ref not given
[3] = test system: plaque deposited Aβ

| Substance | cognitive improvement [1] | cross reactivity with the amyloid precursor protein [2] | binding preference [3] |
| --- | --- | --- | --- |
| Solanezumab | small but significant cognitive improvement | – | – |
| Bapineuzumab | – | lack of cross reactivity | Preferential binding |
